Experimental data published in US3962039A, “Analytical procedure for thyroid hormones” (Center for Laboratory Medicine, priority 1975, dated 1976).
Where a name gives a salt, the structure may show the parent alone.

Tested on: serum protein
Settings: pH 1.0, 30 minutes
Experimental: Contents of the tubes are set out in TABLE II below:
The four tubes were incubated at room temperature for 30 minutes. At the end of the incubation, 4.0 ml of sodium barbital buffer (0.075 M, pH 8.6) was added and mixed with the contents of each tube. The radioactivity of each tube was measured with a gammacounter.
Each of the tubes was then transferred to an Amicon ultrafiltration cone with a centrifuge tube attachment. The tubes were centrifuged for 45 minutes at 2,200 × g at room temperature. The entire ultrafiltrate was collected and the radioactivity counted.
a = radioactivity before ultrafiltration,
b = the radioactivity in the ultrafiltrate

| Compound | destruction of thyroxine binding sites of the serum proteins |
| --- | --- |
| Cl [HCl, Hydrochloric acid] | only partially destroy |
| pepsin | completely destroyed |
